Assay results reported in patent US9409893B2, “Heteroaryl derivatives and uses thereof” (Jacobus Pharmaceutical Company, Inc., priority 2012, dated 2016).
Marks after values point to notes of the source that are not given here.

What was measured:
P. falciparum strain D6 = assay: [3H]-hypoxanthine growth inhibition assay, P. falciparum D6; format: cell-based; conditions: Plasmodium falciparum; P. falciparum D6 (sensitive to chloroquine and pyrimethamine), [3H]-hypoxanthine incorporation; read-out: D6 IC50
How it was run: (§1)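 Parasites cultured in human O Rh+ RBCs in RPMI-1640-LPLF (low PABA and folic acid) with 10% human plasma, pH 6.9, 37° C, 5% O2/5% CO2/90% N2. Sorbitol-synchronised ring-stage cultures started at 1% parasitaemia; growth measured as [3H]-hypoxanthine incorporation in hypoxanthine-free medium. Compound stocks 1 mM in DMSO.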

P. falciparum strain W2 = assay: [3H]-hypoxanthine growth inhibition assay, P. falciparum W2; format: cell-based; conditions: Plasmodium falciparum; P. falciparum W2 (resistant to chloroquine and pyrimethamine), [3H]-hypoxanthine incorporation; read-out: W2 IC50
How it was run: as §1

[1] = test system: Plasmodium berghei (KBG-173 strain); assay: Plasmodium berghei assay in vivo (modified Thompson Test) in CD-1 mice; conditions: bid on days 3, 4 and 5; for Average Days Survival: 31 day experiment; for responders at 4 mg/kg / responders at 8 mg/kg / responders at 16 mg/kg / responders at 32 mg/kg / responders at 64 mg/kg: Plasmodium berghei, 744 h, CD-1 mice infected with P. berghei, read-out: Number of mice alive at day 31 (converted)
Description: In vivo antimalarial activity was tested in male or female Charles River CD-1 mice that were 4-5 weeks old and weighed 20-25 g They were housed in groups of 3 or 4 in standard plastic cages with wire tops, Bed-o-Cob® bedding, 12 hr/day of light, and maintained at 75° F. They were fed a standard Ralston Purina mouse chow and the cages and bottles were changed twice a week. Test compounds were ground in a mortar and pestle and diluted with enough vehicle to give a volume of 10 mL/kg of mouse weight. The oral doses were prepared in 0.5% hydroxyethylcellulose (Union Carbide Corp. WP 4400)/0.1% Tween-80 (Fisher Scientific T164-500). The amount of drug was calculated on the free base weight. The mice were infected intraperitoneally on day 0 with 5×10^4 erythrocytes parasitized with Plasmodium berghei (KBG-173 strain) from a donor mouse having a parasitemia between 5-10%. On days 3, 4 and 5 the test compounds were administered bid, spaced 6 hr apart, by oral gavage to the mice. Activity was measured by survival, with full activity defined as all animals living at day 31. Partial activity is defined as days of increased survival versus the infected non-treated controls. This in vivo model is a modification of the Thompson Test. For further description see Ager, A. L, Jr. Rodent Malaria Models. In Handbook of Experimental Pharmacology: Antimalarial Drugs. 1. 68/1; Peters, W., Richards, W. H. G., Eds.: Springer-Verlag: Berlin, 1984, pp. 231-33.

hERG potassium channel = hERG potassium channel (Homo sapiens, UniProt Q12809); assay: Whole cell patch clamp of cloned hERG potassium channels expressed in HEK293 cells; format: cell-based
Text: For in vitro testing, the functional hERG assay using conventional patch clamp electrophysiology is considered the gold standard for assessment of drug interactions with the hERG potassium channel (Yao et al., Br. J. Pharmacol. 2008, 154, 1446-1456). In this assay, hERG channels are expressed in a human embryonic kidney (HEK293) cell line that lacks endogenous IKr.
The objective of this study was to examine the in vitro effects of test articles on the hERG (human ether-à-go-go-related gene) potassium channel current (a surrogate for IKr, the rapidly activating delayed rectifier cardiac potassium current).
All chemicals used in solution preparation were purchased from Sigma-Aldrich (St. Louis, Mo.) unless otherwise noted and were of ACS reagent grade purity or higher. Stock solutions of the test article and the positive control were prepared in dimethyl sulfoxide (DMSO) and stored frozen. Test article and positive control concentrations were prepared fresh daily by diluting stock solutions into a HEPES-buffered physiological saline (HB-PS) solution (composition in mM): NaCl, 137; KCl, 4.0; CaCl2, 1.8; MgCl2, 1; HEPES, 10; Glucose, 10; pH adjusted to 7.4 with NaOH (prepared weekly and refrigerated until use).
HEK/hERG • Organism: Homo sapiens • Designation: 293 • Tissue: Kidney; Transformed with adenovirus 5 DNA; Transfected with human-ether-a-go-go cDNA • Morphology: Epithelial • Age Stage Embryo • Source Strain: ATCC, Manassas, Va. • Source Substrain ChanTest Corporation, Cleveland, Ohio
HEK293 cells were stably transfected with hERG cDNA. Stable transfectants were selected by coexpression with the G418-resistance gene incorporated into the expression plasmid. Selection pressure was maintained by including G418 in the culture medium. Cells were cultured in Dulbecco's Modified Eagle Medium/Nutrient Mixture F-12 (D-MEM/F-12) supplemented with 10% fetal bovine serum, 100 U/mL penicillin G sodium, 100 μg/mL streptomycin sulfate and 500 μg/mL G418.
All experiments were performed at room temperature. Each cell acted as its own control.
Experiments were performed as outlined in the section entitled Experimental Procedures. Concentrations were selected to evaluate the concentration-response relationship of each test article based on the initial results or the solubility limits in vehicle. Each concentration was tested in at least three cells (n≧3).
Cells were transferred to the recording chamber and superfused with vehicle control solution. Micropipette solution for whole cell patch clamp recordings was composed of (mM): potassium aspartate, 130; MgCl2, 5; EGTA, 5; ATP, 4; HEPES, 10; pH adjusted to 7.2 with KOH. Pipette solution was prepared in batches, aliquoted, stored frozen, and a fresh aliquot was thawed each day. Patch pipettes were made from glass capillary tubing using a P-97 micropipette puller (Sutter Instruments, Novato, Calif.). A commercial patch clamp amplifier was used for whole cell recordings. Before digitization, current records were low-pass filtered at one-fifth of the sampling frequency.
Onset and steady state inhibition of hERG current was measured using a pulse pattern with fixed amplitudes (conditioning prepulse: +20 mV for 2 s; test pulse: −50 mV for 2 s) repeated at 10 s intervals, from a holding potential of −80 mV. Peak tail current was measured during the 2 s step to −50 mV.
Each test article at 10 μM was applied to at least 3 cells (n≧3).
One or more test article concentrations were applied sequentially (without washout between test substance concentrations) in ascending order, to each cell (n≧3). A steady state was maintained for at least 30 s before applying test article or positive control. Peak current was measured until a new steady state was achieved.
Steady state was defined by the limiting constant rate of change with time (linear time dependence). The steady state before and after test article application was used to calculate the percentage of current inhibited at each concentration. […]

hERG potassium channel, sequence (Q12809 whole entry): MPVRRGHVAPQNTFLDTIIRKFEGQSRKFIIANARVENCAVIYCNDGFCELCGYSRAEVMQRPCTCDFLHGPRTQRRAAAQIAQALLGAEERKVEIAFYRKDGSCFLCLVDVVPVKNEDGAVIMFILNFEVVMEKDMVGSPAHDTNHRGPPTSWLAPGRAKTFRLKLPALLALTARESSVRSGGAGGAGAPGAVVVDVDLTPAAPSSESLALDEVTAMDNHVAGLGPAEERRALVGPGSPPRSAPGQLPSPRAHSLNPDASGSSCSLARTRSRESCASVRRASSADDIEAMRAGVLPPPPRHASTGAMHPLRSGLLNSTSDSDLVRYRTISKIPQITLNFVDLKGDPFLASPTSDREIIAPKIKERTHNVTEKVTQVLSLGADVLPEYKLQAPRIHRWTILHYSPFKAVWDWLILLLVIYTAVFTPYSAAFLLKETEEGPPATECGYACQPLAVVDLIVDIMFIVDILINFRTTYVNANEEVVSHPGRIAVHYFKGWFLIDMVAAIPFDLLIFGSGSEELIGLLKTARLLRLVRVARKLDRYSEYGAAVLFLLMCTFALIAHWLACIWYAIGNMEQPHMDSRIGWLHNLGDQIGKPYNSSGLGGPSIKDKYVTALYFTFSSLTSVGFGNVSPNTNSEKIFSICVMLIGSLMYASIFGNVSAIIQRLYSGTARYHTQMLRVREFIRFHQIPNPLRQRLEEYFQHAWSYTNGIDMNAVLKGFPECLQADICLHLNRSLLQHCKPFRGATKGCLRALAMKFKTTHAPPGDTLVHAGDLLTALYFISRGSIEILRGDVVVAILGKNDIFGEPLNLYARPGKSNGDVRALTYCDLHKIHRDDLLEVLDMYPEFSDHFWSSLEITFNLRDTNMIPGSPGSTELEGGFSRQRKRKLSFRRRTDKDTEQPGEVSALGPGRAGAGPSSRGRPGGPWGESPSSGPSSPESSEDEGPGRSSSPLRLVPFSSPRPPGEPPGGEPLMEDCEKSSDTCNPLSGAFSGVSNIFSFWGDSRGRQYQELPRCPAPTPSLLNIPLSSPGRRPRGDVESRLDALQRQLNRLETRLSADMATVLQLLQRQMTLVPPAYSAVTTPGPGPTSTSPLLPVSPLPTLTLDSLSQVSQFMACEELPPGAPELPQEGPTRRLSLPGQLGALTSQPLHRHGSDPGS

SMILES | IC50 (P. falciparum strain D6) | IC50 (P. falciparum strain W2) | melting point | Average Days Survival ([1]; 4 mg/kg/day oral) | Average Days Survival ([1]; 8 mg/kg/day oral) | Average Days Survival ([1]; 16 mg/kg/day oral) | Average Days Survival ([1]; 32 mg/kg/day oral) | Average Days Survival ([1]; 64 mg/kg/day oral) | responders at 4 mg/kg ([1]; 4 mg/kg/day oral) | responders at 8 mg/kg ([1]; 8 mg/kg/day oral) | responders at 16 mg/kg ([1]; 16 mg/kg/day oral) | responders at 32 mg/kg ([1]; 32 mg/kg/day oral) | responders at 64 mg/kg ([1]; 64 mg/kg/day oral) | IC50 (hERG potassium channel; HEK293/hERG, patch clamp, read-out: IC50 for the inhibitory effect on hERG potassium current) | Hill coefficient of hERG inhibition (hERG potassium channel; fit of concentration-response data) | inhibition at 0.3 µM (hERG potassium channel; human, HEK293 cells stably expressing hERG, pH 7.4, 0.3 μM, HEK293/hERG, room temperature, read-out: Mean percentage of hERG current inhibited) | inhibition at 1 µM (hERG potassium channel; human, HEK293 cells stably expressing hERG, pH 7.4, 1 μM, HEK293/hERG, room temperature, read-out: Mean percentage of hERG current inhibited) | inhibition at 3 µM (hERG potassium channel; human, HEK293 cells stably expressing hERG, pH 7.4, 3 μM, HEK293/hERG, room temperature, read-out: Mean percentage of hERG current inhibited) | inhibition at 10 µM (hERG potassium channel; human, HEK293 cells stably expressing hERG, pH 7.4, 10 μM, HEK293/hERG, room temperature, read-out: Mean percentage of hERG current inhibited)
CC(C)(C)NCc1cc(C(C)(C)C)cc(-c2ccc(S(C)(=O)=O)nc2)c1O.Cl [Example 43, 4-(tert-Butyl)-2-((tert-butylamino)methyl)-6-(6-(methylsulfonyl)pyridin-3-yl)phenol hydrochloride] | 158 nM | 100 nM | 229 to 232 °C |  |  |  |  |  |  |  |  |  |  |  |  |  |  |  | 
CC(C)(C)NCc1cc(C(C)(C)C)cc(-c2cnc(C(F)(F)F)c(Cl)c2)c1O.Cl [Example 44, 4-(tert-Butyl)-2-((tert-butylamino)methyl)-6-(5-chloro-6-(trifluoromethyl)pyridin-3-yl)phenol hydrochloride] | 11 nM | 6 nM |  | >31* days | >31* days | >31* days | >31* days | >31* days | 100% | 100% | 100% | 100% | 100% |  |  |  |  |  | 
CC(C)(C)c1cc(CN(CC2CCCCC2)C(C)(C)C)c(O)c(-c2ccc(C(F)(F)F)nc2)c1.Cl [Example 58, 4-(tert-Butyl)-2-((tert-butyl(cyclohexylmethyl)amino)methyl)-6-(6-(trifluoromethyl)pyridin-3-yl)phenol hydrochloride] | 1020 nM | 541 nM |  | >17.5 days | >20 days | >23.8 days | >26 days | >31* days | 14.3% | 42.9% | 42.9% | 85.7% | 100% |  |  |  |  |  | 
CC(C)(C)NCc1cc(-c2ccc(F)cc2)cc(-c2ccc(C(F)(F)F)nc2)c1O.Cl [Example 66, 3-((tert-Butylamino)methyl)-4′-fluoro-5-(6-(trifluoromethyl)pyridin-3-yl)-[1,1′-biphenyl]-4-ol hydrochloride] | 70 nM | 41 nM |  | >21.3 days | >26 days | >31* days | >24 days | >7 days | 14.3% | 85.7% | 100% | 85.7% | 85.7% |  |  |  |  |  | 
CC(C)(C)NCc1cc(-c2ccc(Cl)cc2)cc(-c2ccc(C(F)(F)F)nc2)c1O.Cl [Example 70, 3-((tert-Butylamino)methyl)-4′-chloro-5-(6-(trifluoromethyl)pyridin-3-yl)-[1,1′-biphenyl]-4-ol hydrochloride] | 90 nM | 48 nM |  | >19.5 days | >21.5 days | >19 days | >31* days | >31* days | 42.9% | 71.4% | 57.1% | 100% | 100% |  |  |  |  |  | 
CC(C)(C)c1cc2c(c(-c3ccc(C(F)(F)F)nc3)c1)OCN(C(C)(C)C)C2 [Example 75, 3,6-di-tert-Butyl-8-(6-(trifluoromethyl)pyridin-3-yl)-3,4-dihydro-2H-benzo[e][1,3]oxazine] | 20 nM | 12 nM |  | >22 days | >25 days | >31* days | >31* days | >31* days | 57.1% | 57.1% | 100% | 100% | 100% |  |  |  |  |  | 
CC(C)(C)NCc1cc(C(C)(C)C)cc(-c2ccc(Cl)cc2)c1O [WR-194,965, 4-(tert-butyl)-2-(tert-butylaminomethyl)-6-(4-chlorophenyl)phenol, reference compound] |  |  |  |  |  |  |  |  |  |  |  |  |  | 1100 nM | 1.4 | 12.8% | 47.5% | 80.3% | 97.2%
